Measured values: ChEMBL document CHEMBL1122436, “Structure-activity studies of dermorphin. Synthesis and some pharmacological data of dermorphin and its 1-substituted analogues” (J Med Chem, 1983)

Assays:
Format in all cases: functional
[1] = species on record: Cavia porcellus; experiment: Inhibition of twitches in guinea pig ileum
[2] = species on record: Cavia porcellus; experiment: Inhibition of electrically evoked twitches in guinea pig ileum relative to morphine.
[3] = species on record: Mus musculus; experiment: Analgesic activity in mice by using hot plate method

| Structure (SMILES) | IC50 [1] | Relative potency [2] | ED50 [3] |
| --- | --- | --- | --- |
| C[C@@H](NC(=O)[C@@H](N)Cc1ccc(O)cc1)C(=O)N[C@@H](Cc1ccccc1)C(=O)NCC(=O)N[C@@H](Cc1ccc(O)cc1)C(=O)N1CCC[C@H]1C(=O)N[C@@H](CO)C(N)=O [DERMORPHIN] | 0.052 nM | 1440 | 9.5e-07 M/kg |
| CN1CC[C@]23c4c5ccc(O)c4O[C@H]2[C@@H](O)C=C[C@H]3[C@H]1C5 [MORPHINE] | – | – | 1.7e-06 M/kg |
| COc1ccc(C[C@H](N)C(=O)N[C@H](C)C(=O)N[C@@H](Cc2ccccc2)C(=O)NCC(=O)N[C@@H](Cc2ccc(O)cc2)C(=O)N2CCC[C@H]2C(=O)N[C@@H](CO)C(N)=O)cc1 | – | 40.5 | 6e-05 M/kg |
| C[C@@H](NC(=O)[C@H](N)Cc1ccccc1)C(=O)N[C@@H](Cc1ccccc1)C(=O)NCC(=O)N[C@@H](Cc1ccc(O)cc1)C(=O)N1CCC[C@H]1C(=O)N[C@@H](CO)C(N)=O | – | 0.0042 | >0.001 M/kg |
| C[C@@H](NC(=O)[C@@H](N)Cc1ccccc1)C(=O)N[C@@H](Cc1ccccc1)C(=O)NCC(=O)N[C@@H](Cc1ccc(O)cc1)C(=O)N1CCC[C@H]1C(=O)N[C@@H](CO)C(N)=O | – | 0.026 | 1.55e-05 M/kg |
| CC(=O)N[C@@H](Cc1ccc(O)cc1)C(=O)N[C@H](C)C(=O)N[C@@H](Cc1ccccc1)C(=O)NCC(=O)N[C@@H](Cc1ccc(O)cc1)C(=O)N1CCC[C@H]1C(=O)N[C@@H](CO)C(N)=O | – | 0.0044 | >0.001 M/kg |
| C[C@H](N)C(=O)N[C@H](C)C(=O)N[C@@H](Cc1ccccc1)C(=O)NCC(=O)N[C@@H](Cc1ccc(O)cc1)C(=O)N1CCC[C@H]1C(=O)N[C@@H](CO)C(N)=O | – | 0.0017 | 6.1e-05 M/kg |
| CSCC[C@H](NC(=O)[C@H](Cc1ccccc1)NC(=O)CNC(=O)[C@@H](C)NC(=O)[C@@H](N)Cc1ccc(O)cc1)C(N)=O | 2.5 nM | 30 | – |
